Key:
[1] = tested on: floating bacteria in water; assay: Bactericidal effect on the bacteria in water (Total Bacteria Count); details: raw water; total chlorine 2 ppm and 10 ppm; 3 hours and 24 hours; FIG. 3
Description: This example is mainly focused on using the present method or combination to inhibit the floating bacteria in water. The raw water without adding any biocides was used as the control group. The total chlorine concentration in water was controlled at 2 ppm and 10 ppm, separately. Sodium hypochlorite and two kinds of stabilizers were added to the raw water and sample obtained was used as the experimental group (dual stabilizers). Moreover, the group wherein only sodium hypochlorite was added was the control experimental group 1 (Cl2) and the group wherein sodium hypochlorite and one stabilizer were added to the raw water was the control experimental group 2 (single stabilizer). In the control experimental group 1 and 2, the total chlorine concentrations were controlled at 2 ppm and 10 ppm, separately. The addition method of the above substances and the substances used were identical to the examples 1 or 2. […] After placing the control group, the control experimental group 1, 2 and the experimental group for 3 hours and 24 hours, the number of the bacteria in the water of these samples were determined and compared. The bacterial number was indicated by the Total Bacteria Count (sometimes abbreviated as TBC in the following description), which was determined by referencing the method of 3M™ Petrifilm™ Aerobic Count Plates.

[2] = Total chlorine and free chlorine concentration by DPD method; type: physicochemical; details: for free chlorine (FRC) concentration: sulfamic acid:sodium hypochlorite 1.2:1, pH >12
Excerpt: The total chlorine concentration (amount) can be detected according to the following method. The combined chlorine can oxidize the iodide into iodine. The iodine and free chlorine can react with DPD (N,N-Diethyl-p-phenylenediamine) to form a red substance, and which can be used to represent the concentration of the total chlorine (using the absorbance obtained at 530 nm measurement to represent the concentration of total chlorine). The above free chlorine concentration (amount) may be determined by the following method. The free chlorine which may exist in the form of hypochlorous acid or ions of hypochlorite can react with DPD (N, N-Diethyl-p-phenylenediamine) indicator rapidly to form a pink-colored substance, and the strength of such color can be used to indicate the amount of free chlorine, for example the concentration of free chlorine is determined by the measurements of absorbance on 530 nm. The combined chlorine concentration in water is calculated by subtracting free chlorine concentration from total chlorine concentration (i.e., TRC-FRC). In the present invention, TRC and FRC are measured for example by HACH DR2800 spectrophotometer.
In order to further reduce the FRC, the second stabilizer ammonium sulfate was used in the present example. In the present example, 67 g sodium hypochlorite and 13 g sulfamic acid (sulfamic acid ≥99.5%, AR, Sinopharm Chemical Reagent Co. Ltd.) were first added to 20 g water. The molar ratio between sulfamic acid and sodium hypochlorite was 1.2 to 1. Then the pH was adjusted to more than 12 by sodium hydroxide. According to the addition amount of sodium hypochlorite, the different molar ratios of second stabilizer ammonium sulfates were added. After the solution was uniformly mixed, DPD and iodine were used to determine the TC concentration and DPD was used to determine the FRC concentration.
In the present example, the second stabilizer ammonium sulfate was used in dilute solution to research the reducing effect on FRC. In the present example, 67 g sodium hypochlorite and 13 g sulfamic acid (sulfamic acid ≥99.5%, AR, Sinopharm Chemical Reagent Co. Ltd.) were first added to 3020 g water. The molar ratio between sulfamic acid and sodium hypochlorite was 1.2 to 1. Comparing to the concentration of the sodium hypochlorite and sulfamic acid of the example 1, that of the example 2 was diluted to about 30 times. Then the pH was adjusted to more than 12 by sodium hydroxide. According to the addition amount of sodium hypochlorite, the different molar ratios of second stabilizer ammonium sulfates were added. After the solution was mixed uniformly, DPD and iodine were used to determine the TC concentration and DPD was used to determine the FRC concentration.

Row | SMILES | bactericidal effect (Total Bacteria Count) [1] | free chlorine (FRC) concentration ([2]; concentrated solution, 0.3 moles second stabilizer per 1 mole sodium hypochlorite, reduced from 1200 ppm, FIG. 1) | effect on total chlorine ([2]; concentrated solution, 0.3 moles second stabilizer per 1 mole sodium hypochlorite, FIG. 1) | free chlorine (FRC) concentration ([2]; dilute solution, 0.4 moles second stabilizer per 1 mole sodium hypochlorite, reduced from about 50 ppm, FIG. 2) | effect on total chlorine amount ([2]; dilute solution, 0.4 moles second stabilizer per 1 mole sodium hypochlorite, FIG. 2)
1 | OCl [sodium hypochlorite] | strongest bactericidal effect |  |  |  | 
2 | N.N.O=S(=O)(O)O [second stabilizer, ammonium sulfate] |  | about 40 ppm | without affecting the total chlorine | about 20 ppm | without affecting the total chlorine amount

From patent US10086335B2, “Composition and method for biofouling inhibition of membrane separation device” (Ecolab USA Inc., priority 2013, dated 2018)
